According to ChEMBL document CHEMBL5241103, “Progress in the development of domain selective inhibitors of the bromo and extra terminal domain family (BET) proteins” (Eur J Med Chem, 2021):
One block for each molecule: values may come before it.

What was measured:
[1] = target: T1, Bromodomain-containing protein 4 (Homo sapiens, UniProt O60885); assay: Inhibition of his 6 tagged BRD4 D1 (unknown origin) expressed in Escherichia coli BL21 (DE3) by fluorescence anisotropy assay
Homo sapiens [2] = species on record: Homo sapiens; assay: Selectivity ratio of IC50 for BRD4 BD2 (unknown origin) to IC50 for BRD4 BD1 (unknown origin)
[3] = target: Mitogen-activated protein kinase 14 (Homo sapiens, UniProt Q16539)
Chain of Mitogen-activated protein kinase 14 (Q16539 whole entry): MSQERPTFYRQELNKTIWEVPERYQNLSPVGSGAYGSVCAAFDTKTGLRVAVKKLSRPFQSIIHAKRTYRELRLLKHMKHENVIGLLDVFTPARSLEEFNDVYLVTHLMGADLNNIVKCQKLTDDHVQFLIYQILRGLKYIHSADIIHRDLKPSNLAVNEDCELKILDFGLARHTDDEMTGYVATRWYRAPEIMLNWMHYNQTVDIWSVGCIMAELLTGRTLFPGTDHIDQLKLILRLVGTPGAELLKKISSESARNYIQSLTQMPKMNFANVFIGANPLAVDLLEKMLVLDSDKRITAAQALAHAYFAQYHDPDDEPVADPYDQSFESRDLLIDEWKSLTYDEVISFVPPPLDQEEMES
Description: Binding affinity to p38 alpha (unknown origin) assessed as dissociation constant by DiscoverX kinomescan method

[4] = Inhibition of BRD BD2 (unknown origin) by alpha screen assay; parameters: species or system Homo sapiens
Homo sapiens [5] = species on record: Homo sapiens; assay: Selectivity ratio of IC50 for BRD BD1 (unknown origin) to IC50 for BRD BD2 (unknown origin)
[6] = Inhibition of BRD BD1 (unknown origin) by alpha screen assay; parameters: species or system Homo sapiens
Homo sapiens [7] = species on record: Homo sapiens; assay: Selectivity ratio of Ki for human BRD4 BD2 to Ki for BRD4 BD1
[8] = target: T1, Bromodomain-containing protein 4; assay: Binding affinity to human BRD4 BD1 assessed as inhibition constant incubated for 1 hr by competitive binding assay
[9] = target: T1, Bromodomain-containing protein 4; assay: Binding affinity to human BRD4 BD2 assessed as inhibition constant incubated for 1 hr by competitive binding assay
Homo sapiens [10] = species on record: Homo sapiens; assay: Selectivity ratio of Kd for BRD2 BD1 (unknown origin) to Kd for BRD2 BD2 (unknown origin)
[11] = target: T2, Bromodomain-containing protein 2 (Homo sapiens, UniProt P25440); assay: Binding affinity to BDR2-BD1 (unknown origin) by TR-FRET assay
T2 sequence (P25440 whole entry): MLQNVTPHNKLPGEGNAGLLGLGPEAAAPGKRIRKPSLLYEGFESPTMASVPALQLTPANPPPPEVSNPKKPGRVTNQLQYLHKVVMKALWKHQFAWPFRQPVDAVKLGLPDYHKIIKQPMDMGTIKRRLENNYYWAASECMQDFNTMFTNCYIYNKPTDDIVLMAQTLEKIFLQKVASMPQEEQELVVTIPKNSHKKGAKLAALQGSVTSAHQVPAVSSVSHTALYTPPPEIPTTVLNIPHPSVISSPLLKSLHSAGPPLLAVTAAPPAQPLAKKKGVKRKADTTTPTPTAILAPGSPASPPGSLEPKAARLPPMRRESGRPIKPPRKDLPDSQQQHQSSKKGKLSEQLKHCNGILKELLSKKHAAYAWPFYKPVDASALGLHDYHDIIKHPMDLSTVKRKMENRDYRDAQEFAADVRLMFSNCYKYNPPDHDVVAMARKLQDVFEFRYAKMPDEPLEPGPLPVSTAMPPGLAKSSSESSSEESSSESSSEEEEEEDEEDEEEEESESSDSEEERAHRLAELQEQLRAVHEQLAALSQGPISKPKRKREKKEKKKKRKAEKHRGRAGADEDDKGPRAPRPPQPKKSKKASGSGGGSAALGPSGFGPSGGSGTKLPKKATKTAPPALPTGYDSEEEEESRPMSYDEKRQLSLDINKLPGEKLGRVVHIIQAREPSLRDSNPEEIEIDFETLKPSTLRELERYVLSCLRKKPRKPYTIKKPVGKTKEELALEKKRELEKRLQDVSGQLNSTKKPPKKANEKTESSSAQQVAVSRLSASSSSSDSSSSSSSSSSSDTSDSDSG

[12] = target: T2, Bromodomain-containing protein 2; assay: Binding affinity to BDR2- BD2 (unknown origin) by TR-FRET assay
Homo sapiens [13] = species on record: Homo sapiens; assay: Selectivity ratio of Kd for BRD4 BD1 (unknown origin) to Kd for BRD4 BD2 (unknown origin)

IC50 [1]: 130 nM | Ratio IC50 (Homo sapiens [2]): 9 | Kd [3]: 1900 nM
Structure (SMILES): Cc1cc(C)cc(Oc2nccc(-c3c(-c4ccc(C(F)(F)F)cc4)ncn3C3CCN(CCN)CC3)n2)c1

IC50 [4]: 20 nM | Ratio IC50 (Homo sapiens [5]): 40 | IC50 [6]: 1160 nM
Structure (SMILES): COc1cc(OC)c2c(=O)[nH]c(-c3cc(C)c(OCCN4CCCC4)c(C)c3)nc2c1

Ratio Ki (Homo sapiens [7]): 9 | Ki [8]: 77 nM | Ki [9]: 718 nM
Structure (SMILES): COc1ccc(NC(=O)c2ccc(NC3=C(C)C(=O)CC3)c(Cl)c2)cc1

Ratio (Homo sapiens [10]): 67 | Kd [11]: 931 nM | Kd [12]: 14 nM
Structure (SMILES): COC(=O)c1ccc(N[C@@H]2C[C@H](C)N(C(C)=O)c3ccc(-c4cccc(NC(C)=O)c4)cc32)cc1

Ratio (Homo sapiens [13]): 152 | Ratio (Homo sapiens [10]): 80 | Kd [11]: 490 nM | Kd [12]: 6 nM
Structure (SMILES): CC(=O)N1c2ccc(-c3cc[nH]n3)cc2[C@H](Nc2ccc(C#N)cc2)C[C@@H]1C
